Results reported in patent US20250134874A1, “PHARMACEUTICAL FORMULATIONS COMPRISING 3-({[(4R)-7-{METHYL[4-(PROPAN-2-YL)PHENYL]AMINO}-3,4-DIHYDRO-2H-1-BENZOPYRAN-4-YL]METHYL}AMINO)PYRIDINE-4-CARBOXYLIC ACID” (TACHYON THERAPEUTICS, INC., priority 2021, published 2025).

Tested on: 301 cancer cell lines from different tumor types (OncoPanel; HD Biosciences)
Assay: 2D cell viability inhibition assay (CellTiter-Glo) in cancer cell line panel
Format: cell-based
Design: key to AUC: AUC as fraction of the no-inhibition area (dose range × 0–100 % of control)
Details: for Emax: in %
Experimental: In a larger screening study, compound 1 was evaluated across a broad cancer cell line panel (OncoPanel; HD Biosciences) composed of 301 cancer cell lines from different tumor types.
2D cell viability inhibition assays were performed in multiwell plates seeded with cells from the panel. After seeding, the plates were cultured overnight in a humidified incubator at 37° C. to promote adherence. Assays were initiated in individual wells by adding either DMSO as a vehicle control, growth media as a blank, or serially diluted compound 1 (10 μM to 0.0005 μM with 1:3 serial dilution). Cultures were incubated for 168 hours after which the number of viable cells in each test well was assessed using the CellTiter-Glo® Luminescent Cell Viability Assay. Luminescence readouts were performed using an EnVision® Multilabel Reader and the compound 1 readouts were normalized to the DMSO control readouts, expressed as a percent of the control. Outliers were flagged out by visual inspection. Percent of control was plotted against the corresponding compound 1 concentration and the absolute IC50 value was determined using four-parameter logistic non-linear regression as the concentration where inhibition was 50% of the control. For maximum inhibition <50%, the absolute IC50 was reported as >10. In addition to EC50 and IC50, AUC was determined and was normalized to the area corresponding to theoretical no-inhibition (the rectangular area defined by the compound dose range and 0 to 100 in y). Emax was recorded as the minimum in y with the compound dose range. For those cell lines where Emax>40, EC50 was manually set to 10 μM. A hierarchical clustering algorithm based on Euclidean distance between the standardized input values and “Ward.D” method as implemented in R hclust function was used to visualize the compound 1 cellular potency data. The sensitive/moderate/resistant calls for each cell line was determined by visually inspecting the resulting clustering dendrogram. All the analyses were done in R Core Team.

[1] = Homo sapiens, 143B, 143B cell line
[2] = Homo sapiens, 647-V, 647V cell line
[3] = Homo sapiens, 786-0, 7860 cell line
[4] = Homo sapiens, A101D, A101D cell line
[5] = Homo sapiens, A549, A549 cell line
[6] = Homo sapiens, A2058, A2058 cell line
[7] = Homo sapiens, A2780, A2780 cell line
[8] = Homo sapiens, A-375, A375 cell line
[9] = Homo sapiens, ACHN, ACHN cell line
[10] = Homo sapiens, AGS, AGS cell line
[11] = Homo sapiens, ASPC1, ASPC1 cell line
[12] = Homo sapiens, AZ-521, AZ521 cell line
[13] = Homo sapiens, BFTC-905, BFTC905 cell line
[14] = Homo sapiens, BT-549, BT549 cell line
[15] = Homo sapiens, BXPC-3, BXPC3 cell line
[16] = Homo sapiens, C32, C32 cell line
[17] = Homo sapiens, CAKI-1, CAKI1 cell line
[18] = Homo sapiens, CFPAC-1, CFPAC1 cell line
[19] = Homo sapiens, CHL-1, CHL1 cell line
[20] = Homo sapiens, COLO 205, COLO205 cell line
[21] = Homo sapiens, COLO-320-HSR, COLO320HSR cell line
[22] = Homo sapiens, COLO-679, COLO679 cell line
[23] = Homo sapiens, COLO-680N, COLO680N cell line
[24] = Homo sapiens, COLO-741, COLO741 cell line
[25] = Homo sapiens, COR-L279, CORL279 cell line

Structure (SMILES): CC(C)c1ccc(N(C)c2ccc3c(c2)OCC[C@H]3CNc2cnccc2C(=O)O)cc1 [Compound 1, 3-({[(4R)-7-{methyl[4-(propan-2-yl)phenyl]amino}-3,4-dihydro-2H-1-benzopyran-4-yl]methyl}amino)pyridine-4-carboxylic acid]
- AUC (HCC1599 cell line): 0.4639
- Emax (HCC1599 cell line): 32.7
- AUC (HCC1806 cell line): 0.5325
- Emax (HCC1806 cell line): 36.87
- AUC (HCC1937, breast, ductal carcinoma, 168 hours): 0.9094
- AUC (HCC1954 cell line): 0.5912
- AUC (HCC2935 cell line): 0.6922
- AUC (HCT15 cell line): 0.1838
- Emax (HCT15 cell line): 4.541
- AUC (HCT116 cell line): 0.5356
- AUC (HEL cell line): 0.5268
- Emax (HEL cell line): 28.89
- AUC (HEP3B217 cell line): 0.6448
- IC50 (HEP3B217 cell line): 129 nM
- AUC (HEPG2 cell line): 0.6086
- AUC (HL60 cell line): 0.3703
- Emax (HL60 cell line): 9.446
- AUC (HLE cell line): 0.3839
- Emax (HLE cell line): 7.876
- AUC (HLF cell line): 0.4657
- Emax (HLF cell line): 18.25
- EC50 (HLF, HLF cell line): 11.5 nM
- IC50 (HLF, HLF cell line): 18 nM
- AUC (HMCB cell line): 0.5041
- Emax (HMCB cell line): 32.25
- AUC (HPAC cell line): 0.3965
- AUC (HS294T cell line): 0.6005
- AUC (HS578T cell line): 0.5373
- Emax (HS578T cell line): 32.75
- AUC (HS688AT, skin, NS, 168 hours): 1.105
- AUC (HS695T, skin, NS, 168 hours): 0.9238
- AUC (HS739T, breast, NS, 168 hours): 0.8686
- AUC (HS839T, skin, NS, 168 hours): 1.097
- AUC (HS852T, skin, NS, 168 hours): 0.883
- AUC (HSC2 cell line): 0.4511
- Emax (HSC2 cell line): 26.01
- AUC (HSC3 cell line): 0.6313
- AUC (HSC4 cell line): 0.4347
- Emax (HSC4 cell line): 23.28
- AUC (HT29 cell line): 0.5741
- AUC (HT55 cell line): 0.4704
- Emax (HT55 cell line): 22.172
- AUC (HT144, skin, NS, 168 hours): 0.8912
- AUC (HT1080 cell line): 0.5438
- Emax (HT1080 cell line): 29.74
- AUC (HT1376 cell line): 0.5519
- AUC (HUH1 cell line): 0.4145
- Emax (HUH1 cell line): 11.68
- AUC (HUH7 cell line): 0.3926
- Emax (HUH7 cell line): 7.054
- AUC (HUH28, biliary tract, NS, 168 hours): 0.9862
- AUC (HUTU80 cell line): 0.3016
- EC50 [1]: 13.9 nM
- IC50 [1]: 14.4 nM
- EC50 [2]: 11.2 nM
- IC50 [2]: 12.2 nM
- EC50 [3]: 11.7 nM
- IC50 [3]: 22.5 nM
- EC50 [4]: 6.91 nM
- IC50 [4]: 11 nM
- IC50 (Homo sapiens, A204, 168 h, A204, soft tissue, NS, 168 hours): > 10000 nM
- EC50 [5]: 18.5 nM
- IC50 [5]: 32.4 nM
- EC50 [6]: 28.1 nM
- IC50 [6]: 46.8 nM
- EC50 [7]: 2.1 nM
- IC50 [7]: 2.14 nM
- EC50 [8]: 7.62 nM
- IC50 [8]: 10.6 nM
- EC50 [9]: 30.3 nM
- IC50 [9]: 34.7 nM
- EC50 [10]: 5.18 nM
- IC50 [10]: 6.19 nM
- EC50 [11]: 18.9 nM
- IC50 [11]: 66.8 nM
- EC50 [12]: 3.84 nM
- IC50 [12]: 4.19 nM
- EC50 [13]: 8.93 nM
- IC50 [13]: 9.91 nM
- IC50 (Homo sapiens, BT-20, 168 h, BT20, breast, ductal carcinoma, 168 hours): > 10000 nM
- IC50 (Homo sapiens, BT-474, 168 h, BT474, breast, ductal carcinoma, 168 hours): > 10000 nM
- EC50 [14]: 5.84 nM
- IC50 [14]: 9.98 nM
- EC50 [15]: 8.45 nM
- IC50 [15]: 19.4 nM
- IC50 (Homo sapiens, C2BBe1, 168 h, C2BBE1, large intestine, adenocarcinoma, 168 hours): > 10000 nM
- EC50 [16]: 5.18 nM
- IC50 [16]: 5.36 nM
- EC50 [17]: ≥ 10000 nM
- IC50 [17]: 4.43 nM
- IC50 (Homo sapiens, CAL-27, 168 h, CAL27, upper aerodigestive tract, squamous cell carcinoma, 168 hours): > 10000 nM
- IC50 (Homo sapiens, CAPAN-1, CAPAN1 cell line): 116 nM
- IC50 (Homo sapiens, CCF-STTG1, 168 h, CCFSTTG1, central nervous system, astrocytoma, 168 hours): > 10000 nM
- EC50 [18]: 11.3 nM
- IC50 [18]: 15.3 nM
- EC50 [19]: 4.68 nM
- IC50 [19]: 6.08 nM
- EC50 [20]: 5.97 nM
- IC50 [20]: 11.5 nM
- EC50 [21]: 4.46 nM
- IC50 [21]: 4.61 nM
- EC50 [22]: 2340 nM
- IC50 [22]: 2040 nM
- EC50 [23]: 4.79 nM
- IC50 [23]: 6.97 nM
- EC50 [24]: 6.86 nM
- IC50 [24]: 10.4 nM
- IC50 (Homo sapiens, COLO-829, COLO829 cell line): > 10000 nM
- EC50 [25]: 4.23 nM
- IC50 [25]: 4.34 nM
- IC50 (Homo sapiens, Calu-1, 168 h, CALU1, lung, squamous cell carcinoma, 168 hours): > 10000 nM
- IC50 (Homo sapiens, Calu-3, 168 h, CALU3, lung, adenocarcinoma, 168 hours): > 10000 nM
- EC50 (Homo sapiens, Calu-6, CALU6 cell line): 11.5 nM
